Data: US11883400B2, “Treatment of portal hypertension and cirrhosis” (Noorik Biopharmaceuticals AG, priority 2018, dated 2024)
Non-standard residues stand in square brackets, D forms with d. Residues, ends and D or L forms follow the SMILES beside them.

Tests used:
[1] = system: adult subjects with a history of cirrhosis and portal hypertension; assay: Clinical study NCT03827200: portal pressure estimated by Hepatic Venous Pressure Gradient (HVPG); type: in vivo, human
Method: (§1) In the context of a clinical study (ClinicalTrials.gov Identifier: NCT03827200), ambrisentan was administered to 8 adult subjects with a history of cirrhosis and portal hypertension. […] A liquid formulation of ambrisentan was used, consisting of a solution of propylene glycol:ethanol (50:50 w/w) and ambrisentan at a concentration of 5 mg/mL. The solution was reconstituted prior to administration in water or propylene glycol. All subjects were treated for 14 days. Portal pressure was estimated in this study by means of the Hepatic Vein Pressure Gradient (HVPG), the current gold standard to evaluate the degree of portal hypertension in adults with cirrhosis (as described in Bosch, J., Abraldes, J. G., Berzigotti, A., & Garcia-Pagan, J. C. (2009). The clinical use of HVPG measurements in chronic liver disease. Nature Reviews Gastroenterology & Hepatology, 6(10), 573-582). HVPG was measured at baseline and prior to the first administration of ambrisentan. Post-baseline values for HVPG were obtained at 90 minutes following the administration of the first dose of ambrisentan. After 14 days of treatment, HVPG was determined at trough (prior to the last dose) and 90 minutes following the last dose of ambrisentan. Two dose groups were evaluated in this study. In the high dose group, 4 subjects were administered 50 μg ambrisentan on day 1 subcutaneously, followed by 100 μg of ambrisentan twice a day orally for 13 days, for a total daily dose of 200 μg. On day 14, subjects in the high dose group received a final dose of 50 μg ambrisentan subcutaneously. In the low dose group, 4 subjects were administered 10 μg ambrisentan on day 1 subcutaneously, followed by 14 μg of ambrisentan once a day orally for 13 days. On day 14, subjects in the low dose group received a final dose of 10 μg ambrisentan subcutaneously.
All subjects had portal hypertension as determined by HVPG at baseline (mean 19.7 mmHg, range 9-29 mmHg). […] An initial decrease in HVPG was apparent at 90 minutes post-administration in the low-dose group, and the reduction in HVPG was even larger at day 14 when compared to day 1 (Table 2).

[2] = Pharmacokinetic analysis of ambrisentan plasma concentrations in the clinical study; type: in vivo, human; conditions: high dose group
Method: as §1, with “In the high dose group, 4 subjects were administered 50 μg ambrisentan on day 1 subcutaneously, followed by 100 μg of ambrisentan twice a day orally for 13 days, for a total daily dose of 200 μg. On day 14, subjects in the high dose group received a final dose of 50 μg ambrisentan subcutaneously. In the low dose group, 4 subjects were administered 10 μg ambrisentan on day 1 subcutaneously, followed by 14 μg of ambrisentan once a day orally for 13 days. On day 14, subjects in the low dose group received a final dose of 10 μg ambrisentan subcutaneously.” left out

patients with cirrhosis = conditions: administered through the hepatic artery, cited from earlier work
[3] = system: patients with early cirrhosis; conditions: cited from earlier work
[4] = system: patient with portopulmonary hypertension; conditions: one case of portopulmonary hypertension; cited from earlier work
[5] = system: patients with portopulmonary hypertension; conditions: cited from earlier work

In the case of COC(c1ccccc1)(c1ccccc1)[C@H](Oc1nc(C)cc(C)n1)C(=O)O [ambrisentan], the “Change in HVPG from baseline, percent change, mean” value (“Change … percent change, mean” below) ([1]; dose group 10/14 μg, N=4, Day 1, 90 m after first dose) was −6.4%, the “Change … percent change, mean” value ([1]; dose group 10/14 μg, N=4, Day 14, 90 m after last dose) was −14.1% and the “Change … percent change, mean” value ([1]; dose group 10/14 μg, N=4, Day 14, trough (0 H)) was −9.2%. For the same compound, the “Change … percent change, mean” value ([1]; dose group 50/200 μg, N=4, Day 1, 90 m after first dose) was 4.8%, the “Change … percent change, mean” value ([1]; dose group 50/200 μg, N=4, Day 14, 90 m after last dose) was 11.7% and the “Change … percent change, mean” value ([1]; dose group 50/200 μg, N=4, Day 14, trough (0 H)) was 9.2%. For the same compound, the “Steady-state trough ambrisentan plasma concentration” value ([2]; 100 μg twice daily orally for 13 days) was “about 10 ng/mL” and the concentration at 2 h ([2]; human, plasma, subcutaneous, 50 μg at day 14, 2 hours post-administration) was 18 ng/mL.

In the case of CC(C)C[C@@H]1NC(=O)[C@@H](C(C)C)NC(=O)[C@@H]2CCCN2C(=O)[C@@H](CC(=O)O)NC(=O)[C@@H](Cc2c[nH]c3ccccc23)NC1=O [BQ-123] (cyclo(L[dW][dD]P[dV])), the “Reduction of portal pressure as determined by HVPG” value (patients with cirrhosis; acute) is listed as 18%, the “Hepatic artery blood flow” value (patients with cirrhosis) is listed as “significant increase” and the “Acute reduction of portal pressure as assessed by HVPG” value [3] is listed as “did not show any acute reduction on portal pressure”.

In the case of CCCC[C@@H](NC(=O)[C@@H](Cc1cn(C(=O)OC)c2ccccc12)NC(=O)[C@H](CC(C)(C)C)NC(=O)N1[C@H](C)CCC[C@@H]1C)C(=O)O [BQ-788], the “Acute reduction of portal pressure as assessed by HVPG” value [3] is given as “did not show any acute reduction on portal pressure”.

For COc1ccccc1Oc1c(NS(=O)(=O)c2ccc(C(C)(C)C)cc2)nc(-c2ncccn2)nc1OCCO [bosentan], the “Portal pressure as measured by HVPG” value [4] is given as “decrease” and the Pulmonary pressure [4] is given as “decrease”.

For CCCNS(=O)(=O)Nc1ncnc(OCCOc2ncc(Br)cn2)c1-c1ccc(Br)cc1 [macitentan], the 6-minute walking distance [5] is listed as “no effect” and the “Portal pressure as determined by HVPG” value [5] is listed as “not showing a significant difference”.
